Measurements as given in PubChem BioAssay AID270 (DTP/NCI, 2004).
Records with an inconclusive call do not appear.

System: BDF1 mice, s.c. Lewis lung carcinoma, T/C %
Experiment: NCI In Vivo Anticancer Drug Screen. Data for tumor model Lewis Lung Carcinoma (subcutaneous) in B6D2F1 (BDF1) mice
Experimental: The antitumor activity of compounds was measured in mice bearing transplantable tumors. Survival or tumor size were measured and the results are expressed as the measurement made in the treated group (T) divided by the measurement made in the vehicle treated control group (C). The tumor model used in this assay is Lewis Lung Carcinoma (subcutaneous) in B6D2F1 (BDF1) mice

[1] = endpoint: mean tumor weight, dose: 25.0 mg/kg/injection, schedule: Q01DX011 (ip), vehicle: saline, higher = larger tumour
[2] = endpoint: mean tumor weight, dose: 50.0 mg/kg/injection, schedule: Q01DX011 (ip), vehicle: saline, higher = larger tumour

SMILES: CSCS(=O)C[C@H](CO)NC(=O)/C=C/c1c(C)[nH]c(=O)[nH]c1=O (some centres not stated)
- T/C (endpoint: median survival time, dose: 0.08 mg/kg/injection, schedule: Q01DX009 (ip), vehicle: water, higher = longer survival): 94 % of control
- T/C (endpoint: median survival time, dose: 0.15 mg/kg/injection, schedule: Q01DX009 (ip), vehicle: water, higher = longer survival): 109 % of control
- T/C (endpoint: median survival time, dose: 0.3 mg/kg/injection, schedule: Q01DX009 (ip), vehicle: water, higher = longer survival): 97 % of control

SMILES: COC1C(O)CC(OC2CC(Oc3cc4cc5c(c(O)c4c(O)c3C)C(=O)[C@@H](OC3CC(OC4CC(OC6CC(C)(O)C(OC(C)=O)C(C)O6)C(O)C(C)O4)C(O)C(C)O3)[C@H]([C@H](OC)C(=O)[C@@H](O)[C@@H](C)O)C5)OC(C)C2OC(C)=O)OC1C (some centres not stated)
- T/C (endpoint: mean tumor weight, dose: 33.0 micrograms/kg/injection, schedule: Q01DX011 (ip), vehicle: saline with Tween-80, higher = larger tumour): 93 % of control
- T/C (endpoint: mean tumor weight, dose: 65.0 micrograms/kg/injection, schedule: Q01DX011 (ip), vehicle: saline with Tween-80, higher = larger tumour): 82 % of control
- T/C (endpoint: mean tumor weight, dose: 130.0 micrograms/kg/injection, schedule: Q01DX011 (ip), vehicle: saline with Tween-80, higher = larger tumour): 66 % of control
- T/C (endpoint: median survival time, dose: 0.02 mg/kg/injection, schedule: Q01DX011 (ip), vehicle: other, higher = longer survival): 107 % of control

SMILES: C=C1C(=O)O[C@H]2C1[C@H](OC(=O)/C(C)=C\COC(C)=O)C[C@]1(CO1)[C@@H]1[C@H](O)[C@H]3O[C@@]3(C)[C@@H]12 (some centres not stated)
- T/C (endpoint: median survival time, dose: 3.12 mg/kg/injection, schedule: Q01DX009 (ip), vehicle: other, higher = longer survival): 86 % of control
- T/C (endpoint: median survival time, dose: 6.25 mg/kg/injection, schedule: Q01DX009 (ip), vehicle: other, higher = longer survival): 89 % of control
- T/C (endpoint: median survival time, dose: 12.5 mg/kg/injection, schedule: Q01DX009 (ip), vehicle: other, higher = longer survival): 97 % of control
- T/C (endpoint: median survival time, dose: 25.0 mg/kg/injection, schedule: Q01DX009 (ip), vehicle: other, higher = longer survival): 99 % of control

SMILES: Cc1cc(NCCCCCCNc2cc(C)nc3ccc(N)cc23)c2cc(N)ccc2n1
- T/C (endpoint: median tumor weight (est.), dose: 18.75 mg/kg/injection, schedule: Q01DX009 (ip), vehicle: Klucel (hydroxypropylcellulose) (HPC), higher = larger tumour): 75 % of control
- T/C (endpoint: median tumor weight (est.), dose: 37.5 mg/kg/injection, schedule: Q01DX009 (ip), vehicle: Klucel (hydroxypropylcellulose) (HPC), higher = larger tumour): 54 % of control
- T/C (endpoint: median tumor weight (est.), dose: 37.5 mg/kg/injection, schedule: Q01DX009 (oral), vehicle: Klucel (hydroxypropylcellulose) (HPC), higher = larger tumour): 90 % of control
- T/C (endpoint: median tumor weight (est.), dose: 75.0 mg/kg/injection, schedule: Q01DX009 (ip), vehicle: Klucel (hydroxypropylcellulose) (HPC), higher = larger tumour): 27 % of control
- T/C (endpoint: median tumor weight (est.), dose: 75.0 mg/kg/injection, schedule: Q01DX009 (oral), vehicle: Klucel (hydroxypropylcellulose) (HPC), higher = larger tumour): 102 % of control
- T/C (endpoint: median tumor weight (est.), dose: 150.0 mg/kg/injection, schedule: Q01DX009 (oral), vehicle: Klucel (hydroxypropylcellulose) (HPC), higher = larger tumour): 102 % of control
- T/C (endpoint: median tumor weight (est.), dose: 300.0 mg/kg/injection, schedule: Q01DX009 (oral), vehicle: Klucel (hydroxypropylcellulose) (HPC), higher = larger tumour): 84 % of control
- T/C (endpoint: median tumor weight (est.), dose: 600.0 mg/kg/injection, schedule: Q01DX009 (oral), vehicle: Klucel (hydroxypropylcellulose) (HPC), higher = larger tumour): 83 % of control

SMILES: CC(C)=CCC/C(C)=C\CC/C(C)=C/CO
- T/C (endpoint: mean tumor weight, dose: 6.25 mg/kg/injection, schedule: Q01DX011 (ip), vehicle: saline, higher = larger tumour): 85 % of control
- T/C (endpoint: mean tumor weight, dose: 12.5 mg/kg/injection, schedule: Q01DX011 (ip), vehicle: saline, higher = larger tumour): 50 % of control
- T/C [1]: 67 % of control
- T/C [2]: 95 % of control

SMILES: Nc1nc(-c2ccccc2N=NN2CCCC2)nc2ccccc12
- T/C (endpoint: median survival time, dose: 6.25 mg/kg/injection, schedule: Q01DX009 (ip), vehicle: Klucel (hydroxypropylcellulose) (HPC), higher = longer survival): 105 % of control
- T/C (endpoint: median survival time, dose: 12.5 mg/kg/injection, schedule: Q01DX009 (ip), vehicle: Klucel (hydroxypropylcellulose) (HPC), higher = longer survival): 97 % of control
- T/C (endpoint: median survival time, dose: 25.0 mg/kg/injection, schedule: Q01DX009 (ip), vehicle: Klucel (hydroxypropylcellulose) (HPC), higher = longer survival): 103 % of control

SMILES: O=[N+]([O-])c1ccc(CSc2ncnc3c2ncn3C2OC(CO)C(O)C2O)cc1 (configuration not stated)
- T/C (endpoint: median survival time, dose: 0.3 mg/kg/injection, schedule: Q01DX010 (ip), vehicle: saline with Tween-80, higher = longer survival): 93 % of control
- T/C (endpoint: median survival time, dose: 3.0 mg/kg/injection, schedule: Q01DX010 (ip), vehicle: saline with Tween-80, higher = longer survival): 97 % of control
- T/C (endpoint: median survival time, dose: 30.0 mg/kg/injection, schedule: Q01DX010 (ip), vehicle: saline with Tween-80, higher = longer survival): 106 % of control

SMILES: CCOP(=O)(CC(=O)NC(CC(=O)OC)C(=O)OC)OCC (configuration not stated)
- T/C (endpoint: median survival time, dose: 50.0 mg/kg/injection, schedule: Q01DX004 (ip), vehicle: saline, higher = longer survival): 110 % of control
- T/C (endpoint: median survival time, dose: 100.0 mg/kg/injection, schedule: Q01DX004 (ip), vehicle: saline, higher = longer survival): 120 % of control
- T/C (endpoint: median survival time, dose: 200.0 mg/kg/injection, schedule: Q01DX004 (ip), vehicle: saline, higher = longer survival): 116 % of control
- T/C (endpoint: median survival time, dose: 800.0 mg/kg/injection, schedule: Q01DX004 (ip), vehicle: saline, higher = longer survival): 124 % of control
- T/C (endpoint: median survival time, dose: 1600.0 mg/kg/injection, schedule: Q01DX004 (ip), vehicle: saline, higher = longer survival): 124 % of control

SMILES: C=C1CC/C=C(\C)CCC2C1CC2(C)C (configuration not stated)
- T/C [1]: 94 % of control
- T/C [2]: 88 % of control
- T/C (endpoint: mean tumor weight, dose: 100.0 mg/kg/injection, schedule: Q01DX011 (ip), vehicle: saline, higher = larger tumour): 45 % of control
